Source: patent US20220105108A1, “PERIVASCULAR ANTI-INFLAMMATORY THERAPY FOR VENOUS THROMBOSIS” (Mercator MedSystems, Inc., priority 2020, published 2022)
Read-outs that look alike come from different tables or passages of the source.

Key:
[1] = DANCE-Pilot study and DANCE trial: adventitial dexamethasone after femoropopliteal revascularization; format: in vivo, human; details: for transient hyperglycemia event: controlled with insulin; for Rate of CD-TLR: 12 months
Excerpt: Provided herein are examples of in vivo human clinical trials using the Bullfrog Micro-Infusion Device for local delivery of dexamethasone. The Bullfrog Micro-Infusion Device was successfully used in the DANCE (Dexamethasone to the Adventitia to Enhance Clinical Efficacy After Femoropopliteal Revascularization)-Pilot study and the DANCE trial in superficial femoral and popliteal arteries.
In the DANCE-Pilot study, 20 subjects were enrolled and treated with the Bullfrog device delivery of dexamethasone sodium phosphate. In the DANCE trial, 283 limbs were enrolled and treated with the Bullfrog device delivery of dexamethasone sodium phosphate. In 3.3% of the subjects enrolled in DANCE, there was no detected contrast medium distribution in the adventitia and perivascular tissues. In one subject in DANCE-Pilot and one subject in DANCE, there was a transient hyperglycemia event reported, which was treated and controlled with insulin therapy. There were no other unexpected adverse device events or suspected unexpected severe adverse reactions reported in the study.
The single-arm DANCE (Dexamethasone to the Adventitia to Enhance Clinical Efficacy After Femoropopliteal Revascularization) trial enrolled 262 subjects (283 limbs) with symptomatic peripheral artery disease (Rutherford category 2 to 4) receiving percutaneous transluminal angioplasty (PTA) (n=124) or atherectomy (ATX) (n=159) in femoropopliteal lesions <15 cm in length. A mixture of dexamethasone/contrast medium (80%/20%) was delivered to the adventitia and perivascular tissues surrounding target lesions in all subjects. Thirty-day assessments included major adverse limb events (MALE) and post-operative death. Twelve-month assessments included primary patency, freedom from clinically driven target lesion revascularization (CD-TLR), Rutherford scoring, and walking impairment questionnaire. […] In the secondary analysis, both the ATX and PTA DANCE groups were noninferior to the 72.3% contemporary performance goal, whether examining the PP (P<0.001 and P<0.004, respectively) or ITT (P<0.002 and P<0.005, respectively) population.

[2] = 10 mg equivalent dexamethasone phosphate in 3 ml, after angioplasty, 14 days
Method: A first study was designed to compare a high dose of dexamethasone (10 mg equivalent dose of dexamethasone phosphate) delivered in 3 ml volume to the perivascular tissue of porcine AV grafts (6 mm ringed PTFE) implanted between femoral artery and femoral vein pairs, bilaterally. Fourteen days after graft implantation, percutaneous transluminal angioplasty (PTA) was performed (7 mm balloon, 16 atmosphere inflation pressure) at two sites per graft: across the graft-vein anastomosis (GVA) and in the proximal vein (PV). Perivascular infusion of either dexamethasone (6 grafts) or placebo (2 grafts) was administered following the PTA procedure. Infusions of 3m1 were always consistent between the 2 grafts in each animal. Animals were euthanized 14 days after the treatment procedure and the graft-vein anastomosis and proximal vein were analyzed by histopathology and histomorphometry to determine adverse effects from the high dose of dexamethasone. The study was not powered to identify differences in stenosis but rather was aimed at determining dexamethasone local toxicity.

[3] = in vivo
Method: (§1) A second study was designed to assess the local toxicity of dexamethasone administered via the Bullfrog Micro-Infusion Device in a swine model. The following objectives were met in the study: In each of four subjects, confirmation of the safety of up to 16 mg dexamethasone delivered to the adventitia and perivascular tissue of each of 4 peripheral arteries and 6.4 mg dexamethasone delivered to the adventitia and perivascular tissue of each of 3 coronary arteries (at 3.2 mg/mL with 20% contrast), as compared to normal untreated tissue in two untreated subjects by clinical pathology and histopathology examination, at 28±3 days.

[4] = tested on: vWF; details: at 24 hours and 48 hours with dexamethasone treatment; cited from earlier work
[5] = Local toxicity of dexamethasone administered via Bullfrog device to peripheral and coronary arteries in swine; details: 28±3 days
Method: as §1

[6] = tested on: P-selectin; details: cited from earlier work

## C[C@@H]1C[C@H]2[C@@H]3CCC4=CC(=O)C=C[C@]4(C)[C@@]3(F)[C@@H](O)C[C@]2(C)[C@@]1(O)C(=O)COP(=O)(O)O [dexamethasone sodium phosphate]
[1]; DANCE-Pilot and DANCE
  other unexpected adverse device events or suspected unexpected severe adverse reactions: no other
[1]; DANCE-Pilot, 20 subjects
  transient hyperglycemia event: one subject
[1]; DANCE
  transient hyperglycemia event: one subject

## C[C@@H]1C[C@H]2[C@@H]3CCC4=CC(=O)C=C[C@]4(C)[C@@]3(F)[C@@H](O)C[C@]2(C)[C@@]1(O)C(=O)CO [dexamethasone, 9-fluoro-11(beta),17,21-trihydroxy-16(alpha)-methylpregna-1,4-diene-3,20-dione]
[2]
  histopathology findings of femoral GVA vs perivascular placebo: no differences
[3]
  adverse or toxicologically meaningful changes in the treated vessels: no adverse or toxicologically meaningful changes
[4]
  vWF: elevated
[1]; DANCE trial
  30-day MALE+post-operative death events: no 30-day MALE+post-operative death events
[1]; DANCE-ATX, ITT
  Rate of CD-TLR: 13.1%
[1]; DANCE-ATX, intent-to-treat
  primary patency rate at 12 months: 74.8%
[1]; DANCE-ATX, per-protocol
  primary patency rate at 12 months: 78.4%
  Rate of CD-TLR: 10.0%
[1]; DANCE-PTA, ITT
  Rate of CD-TLR: 13.7%
[1]; DANCE-PTA, intent-to-treat
  primary patency rate at 12 months: 74.3%
[1]; DANCE-PTA, per-protocol
  primary patency rate at 12 months: 75.5%
  Rate of CD-TLR: 11.0%
[1]; in vivo
  dose-limiting toxicity: No dose-limiting toxicity
[5]
  gross necropsy, injury to the treatment areas: no evidence of injury
  local toxicity to the treated vessels (microscopic evaluation): no evidence of local toxicity
  local vascular irritation upon injection: no evidence of local vascular irritation
  peripheral organs abnormalities associated with test article: did not reveal any abnormalities
  thrombosis or stenosis of treated vessels: no evidence of thrombosis or stenosis
[5]; up to 83.2 mg per subject
  adverse postoperative events leading to early death: None of the animals
[6]; dexamethasone treatment
  P-selectin, time of elevation: 48 h
[6]; high dose 1 mg/kg bid×2 days, healthy males
  P-selectin levels: induced elevated P-selectin levels
[6]; low dose 0.04 mg/kg bid×2 days
  P-selectin levels: did not induce elevated P-selectin levels
